Test system: human umbilical vein endothelial cells (HUVEC)
Assay: HUVEC proliferation assay
Format: cell-based
Conditions: Homo sapiens, HUVEC, crude combinatorial amide library; for inhibition at 0.15 µM: Table I screening results, 150 nM; for inhibition at 0.001 µM / inhibition at 0.01 µM: Table II screening results; for inhibition at 0.001 µM: 1 nM; for inhibition at 0.01 µM: 10 nM, read-out: % inhibition @ 10 nM
Outline: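 Exponentially growing HUVEC were serum-starved 24 h (F12K + 1% FBS), pre-treated 1 h with compound (0.1% DMSO final), then stimulated with 6 ng/ml VEGF. Proliferation was read 72 h later by MTT reduction (A595). IC50 came from seven 0.5-log concentrations in triplicate; screens gave % inhibition relative to VEGF-only and starved wells.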

COc1cc(Nc2nc(N)c(-c3nc(-c4cccc(NC(=O)CC56CC7CC8CC(C5)C8(C7)C6)c4)cs3)s2)cc(OC)c1OC (centres unmarked)
inhibition at 0.15 µM: 8%

COc1cc(Nc2nc(N)c(-c3nc(-c4cccc(NC(=O)c5ccc(C(=O)c6ccccc6)cc5)c4)cs3)s2)cc(OC)c1OC
inhibition at 0.15 µM: 7%

COc1cc(Nc2nc(N)c(-c3nc(-c4cccc(NC(=O)CCCc5ccccc5)c4)cs3)s2)cc(OC)c1OC
inhibition at 0.15 µM: 15%

COc1cc(Nc2nc(N)c(-c3nc(-c4cccc(NC(=O)/C(=C/c5ccccc5)c5ccccc5)c4)cs3)s2)cc(OC)c1OC
inhibition at 0.15 µM: 3%

COc1cc(Nc2nc(N)c(-c3nc(-c4cccc(NC(=O)[C@@H]5C[C@H]5c5ccccc5)c4)cs3)s2)cc(OC)c1OC
inhibition at 0.15 µM: -4%

COc1cc(Nc2nc(N)c(-c3nc(-c4cccc(NC(=O)CSc5ccncc5)c4)cs3)s2)cc(OC)c1OC
inhibition at 0.15 µM: -34%

COc1cc(Nc2nc(N)c(-c3nc(-c4cccc(NC(=O)C(c5ccccc5)C5CCCC5)c4)cs3)s2)cc(OC)c1OC (centres unmarked)
inhibition at 0.15 µM: 3%

CCC(C(=O)Nc1cccc(-c2csc(-c3sc(Nc4cc(OC)c(OC)c(OC)c4)nc3N)n2)c1)c1ccccc1 (centres unmarked)
inhibition at 0.15 µM: 6%

COc1cc(Nc2nc(N)c(-c3nc(-c4cccc(NC(=O)C5(c6ccccc6)CCCC5)c4)cs3)s2)cc(OC)c1OC
inhibition at 0.15 µM: -10%

COc1cc(Nc2nc(N)c(-c3nc(-c4cccc(NC(=O)C5(c6ccccc6)CC5)c4)cs3)s2)cc(OC)c1OC
inhibition at 0.15 µM: 11%

C=CCCC(=O)Nc1cccc(-c2csc(-c3sc(Nc4cc(OC)c(OC)c(OC)c4)nc3N)n2)c1
inhibition at 0.15 µM: 5%

COc1cc(Nc2nc(N)c(-c3nc(-c4cccc(NC(=O)C5CCc6ccccc6C5)c4)cs3)s2)cc(OC)c1OC (centres unmarked)
inhibition at 0.15 µM: 11%

COc1cc(Nc2nc(N)c(-c3nc(-c4cccc(NC(=O)c5cccs5)c4)cs3)s2)cc(OC)c1OC
inhibition at 0.15 µM: 29%

COc1cc(Nc2nc(N)c(-c3nc(-c4cccc(NC(=O)c5cccc(Oc6ccccc6)c5)c4)cs3)s2)cc(OC)c1OC
inhibition at 0.15 µM: -3%

COc1cc(Nc2nc(N)c(-c3nc(-c4cccc(NC(=O)c5nn(-c6ccccc6)nc5C)c4)cs3)s2)cc(OC)c1OC
inhibition at 0.15 µM: 0%

COc1cc(Nc2nc(N)c(-c3nc(-c4cccc(NC(=O)c5ccc6[nH]ccc6c5)c4)cs3)s2)cc(OC)c1OC
inhibition at 0.15 µM: 15%

COc1cc(Nc2nc(N)c(-c3nc(-c4cccc(NC(=O)CCN5CCCCC5)c4)cs3)s2)cc(OC)c1OC
inhibition at 0.15 µM: 15%

COc1cc(Nc2nc(N)c(-c3nc(-c4cccc(NC(=O)/C=C/c5c[nH]c6ccccc56)c4)cs3)s2)cc(OC)c1OC
inhibition at 0.15 µM: 5%

COc1cc(Nc2nc(N)c(-c3nc(-c4cccc(NC(=O)/C=C/c5c[nH]cn5)c4)cs3)s2)cc(OC)c1OC
inhibition at 0.15 µM: 2%

COc1cc(Nc2nc(N)c(-c3nc(-c4cccc(NC(=O)c5c(-c6ccccc6)noc5C)c4)cs3)s2)cc(OC)c1OC
inhibition at 0.15 µM: 5%

COc1cc(Nc2nc(N)c(-c3nc(-c4cccc(NC(=O)c5ccc(N6N=C(C)CC6=O)cc5)c4)cs3)s2)cc(OC)c1OC
inhibition at 0.15 µM: 0%

COc1cc(Nc2nc(N)c(-c3nc(-c4cccc(NC(=O)C(O)(c5ccccc5)c5ccccc5)c4)cs3)s2)cc(OC)c1OC
inhibition at 0.15 µM: -8%

COc1cc(Nc2nc(N)c(-c3nc(-c4cccc(NC(=O)c5cc(C(C)(C)C)cc(C(C)(C)C)c5)c4)cs3)s2)cc(OC)c1OC
inhibition at 0.15 µM: -12%

CNC(=O)Nc1nc(N)c(-c2nc(-c3cccc(NC(=O)CC4CC5CCC4C5)c3)cs2)s1 (centres unmarked)
inhibition at 0.001 µM: 0%
inhibition at 0.01 µM: 93%

CNC(=O)Nc1nc(N)c(-c2nc(-c3cccc(NC(=O)CCN4CCCCC4)c3)cs2)s1
inhibition at 0.001 µM: 1%
inhibition at 0.01 µM: -26%

CNC(=O)Nc1nc(N)c(-c2nc(-c3cccc(NC(=O)C(C)C)c3)cs2)s1
inhibition at 0.001 µM: 10%
inhibition at 0.01 µM: -45%

CNC(=O)Nc1nc(N)c(-c2nc(-c3cccc(NC(=O)C(O)CC(C)C)c3)cs2)s1 (centres unmarked)
inhibition at 0.001 µM: -18%
inhibition at 0.01 µM: 2%

CNC(=O)Nc1nc(N)c(-c2nc(-c3cccc(NC(=O)c4ccc(=O)oc4)c3)cs2)s1
inhibition at 0.001 µM: -4%
inhibition at 0.01 µM: 30%

CNC(=O)Nc1nc(N)c(-c2nc(-c3cccc(NC(=O)c4cccc5[nH]ccc45)c3)cs2)s1
inhibition at 0.001 µM: -3%
inhibition at 0.01 µM: 2%

CNC(=O)Nc1nc(N)c(-c2nc(-c3cccc(NC(=O)CCC(=O)N4CCCC4)c3)cs2)s1
inhibition at 0.001 µM: 6%
inhibition at 0.01 µM: -10%

CCc1ccccc1C(=O)Nc1cccc(-c2csc(-c3sc(NC(=O)NC)nc3N)n2)c1
inhibition at 0.001 µM: 0%
inhibition at 0.01 µM: 106%

CNC(=O)Nc1nc(N)c(-c2nc(-c3cccc(NC(=O)Cn4ccc5ccccc54)c3)cs2)s1
inhibition at 0.001 µM: 4%
inhibition at 0.01 µM: -15%

CNC(=O)Nc1nc(N)c(-c2nc(-c3cccc(NC(=O)C4=CCCN(C)C4)c3)cs2)s1
inhibition at 0.001 µM: 2%
inhibition at 0.01 µM: 43%

CNC(=O)Nc1nc(N)c(-c2nc(-c3cccc(NC(=O)C4CCCN4C(C)=O)c3)cs2)s1 (centres unmarked)
inhibition at 0.001 µM: 3%
inhibition at 0.01 µM: 27%

CNC(=O)Nc1nc(N)c(-c2nc(-c3cccc(NC(=O)/C=C/C4C[C@H]5C=C[C@@H]4C5)c3)cs2)s1 (some centres unmarked)
inhibition at 0.001 µM: 11%
inhibition at 0.01 µM: 50%

CCC(C(=O)Nc1cccc(-c2csc(-c3sc(NC(=O)NC)nc3N)n2)c1)c1ccccc1C (centres unmarked)
inhibition at 0.001 µM: -8%
inhibition at 0.01 µM: 9%

CNC(=O)Nc1nc(N)c(-c2nc(-c3cccc(NC(=O)c4ccc(C(C)(C)C)o4)c3)cs2)s1
inhibition at 0.001 µM: 2%
inhibition at 0.01 µM: 69%

CNC(=O)Nc1nc(N)c(-c2nc(-c3cccc(NC(=O)/C=C(\C)c4ccccc4C)c3)cs2)s1
inhibition at 0.001 µM: -2%
inhibition at 0.01 µM: 20%

CNC(=O)Nc1nc(N)c(-c2nc(-c3cccc(NC(=O)c4ccc(C(C)=O)s4)c3)cs2)s1
inhibition at 0.001 µM: 49%
inhibition at 0.01 µM: 97%

CNC(=O)Nc1nc(N)c(-c2nc(-c3cccc(NC(=O)C(C)ON=C(C)C)c3)cs2)s1 (centres unmarked)
inhibition at 0.001 µM: 6%
inhibition at 0.01 µM: -7%

CNC(=O)Nc1nc(N)c(-c2nc(-c3cccc(NC(=O)/C=C/C(=O)NCC4CC4)c3)cs2)s1
inhibition at 0.001 µM: 10%
inhibition at 0.01 µM: 1%

CNC(=O)Nc1nc(N)c(-c2nc(-c3cccc(NC(=O)c4cc(OC)ccc4C#N)c3)cs2)s1
inhibition at 0.001 µM: -18%
inhibition at 0.01 µM: -1%

CNC(=O)Nc1nc(N)c(-c2nc(-c3cccc(NC(=O)c4cc(C)cc(=O)o4)c3)cs2)s1
inhibition at 0.001 µM: 5%
inhibition at 0.01 µM: 62%

CNC(=O)Nc1nc(N)c(-c2nc(-c3cccc(NC(=O)Cc4cn(C)cn4)c3)cs2)s1
inhibition at 0.001 µM: 34%
inhibition at 0.01 µM: 42%

CNC(=O)Nc1nc(N)c(-c2nc(-c3cccc(NC(=O)CC(C)(C)NC(C)=O)c3)cs2)s1
inhibition at 0.001 µM: 4%
inhibition at 0.01 µM: -11%

CCO/C(C)=C/C(=O)Nc1cccc(-c2csc(-c3sc(NC(=O)NC)nc3N)n2)c1
inhibition at 0.001 µM: 7%
inhibition at 0.01 µM: 47%

CNC(=O)Nc1nc(N)c(-c2nc(-c3cccc(NC(=O)[C@@H]4C[C@H](C)[C@H](C)[C@@H]4C)c3)cs2)s1
inhibition at 0.001 µM: -11%
inhibition at 0.01 µM: -21%

C/C=C/C(=O)Nc1cccc(-c2csc(-c3sc(NC(=O)NC)nc3N)n2)c1
inhibition at 0.001 µM: -1%
inhibition at 0.01 µM: -7%

CNC(=O)Nc1nc(N)c(-c2nc(-c3cccc(NC(=O)CC4=CCCCC4)c3)cs2)s1
inhibition at 0.001 µM: 29%
inhibition at 0.01 µM: 82%

CNC(=O)Nc1nc(N)c(-c2nc(-c3cccc(NC(=O)C(=O)C4=CCCCC4)c3)cs2)s1
inhibition at 0.001 µM: 17%
inhibition at 0.01 µM: 19%

CNC(=O)Nc1nc(N)c(-c2nc(-c3cccc(NC(=O)C4CNC(=O)N4)c3)cs2)s1 (centres unmarked)
inhibition at 0.001 µM: 11%
inhibition at 0.01 µM: 18%

CNC(=O)Nc1nc(N)c(-c2nc(-c3cccc(NC(=O)C4CC4C)c3)cs2)s1 (centres unmarked)
inhibition at 0.001 µM: -12%
inhibition at 0.01 µM: 0%

CNC(=O)Nc1nc(N)c(-c2nc(-c3cccc(NC(=O)c4cc(F)ccc4C)c3)cs2)s1
inhibition at 0.001 µM: -1%
inhibition at 0.01 µM: 78%

CNC(=O)Nc1nc(N)c(-c2nc(-c3cccc(NC(=O)C4CCSCN4C)c3)cs2)s1 (centres unmarked)
inhibition at 0.001 µM: 1%
inhibition at 0.01 µM: 62%

CNC(=O)Nc1nc(N)c(-c2nc(-c3cccc(NC(=O)[C@@H]4CCC[C@@H]4O)c3)cs2)s1
inhibition at 0.001 µM: 15%
inhibition at 0.01 µM: 13%

CNC(=O)Nc1nc(N)c(-c2nc(-c3cccc(NC(=O)C4CCC(=O)CC4)c3)cs2)s1
inhibition at 0.001 µM: -2%
inhibition at 0.01 µM: 12%

CNC(=O)Nc1nc(N)c(-c2nc(-c3cccc(NC(=O)c4ccccc4C(C)C)c3)cs2)s1
inhibition at 0.001 µM: -9%
inhibition at 0.01 µM: 26%

CNC(=O)Nc1nc(N)c(-c2nc(-c3cccc(NC(=O)[C@@H](O)C(C)C)c3)cs2)s1
inhibition at 0.001 µM: 16%
inhibition at 0.01 µM: 4%

CCn1nc(C)cc1C(=O)Nc1cccc(-c2csc(-c3sc(NC(=O)NC)nc3N)n2)c1
inhibition at 0.001 µM: 17%
inhibition at 0.01 µM: 41%

CNC(=O)Nc1nc(N)c(-c2nc(-c3cccc(NC(=O)C4CC(=O)N(C)C4)c3)cs2)s1 (centres unmarked)
inhibition at 0.001 µM: 21%
inhibition at 0.01 µM: -4%

CNC(=O)Nc1nc(N)c(-c2nc(-c3cccc(NC(=O)/C=C/c4ccccc4OC)c3)cs2)s1
inhibition at 0.001 µM: -34%
inhibition at 0.01 µM: 46%

CNC(=O)Nc1nc(N)c(-c2nc(-c3cccc(NC(=O)C4CC5C=CCC(C5)C4)c3)cs2)s1 (centres unmarked)
inhibition at 0.001 µM: 1%
inhibition at 0.01 µM: 55%

CNC(=O)Nc1nc(N)c(-c2nc(-c3cccc(NC(=O)C4CC5C=CC4CC5)c3)cs2)s1 (centres unmarked)
inhibition at 0.001 µM: 54%
inhibition at 0.01 µM: 45%

CNC(=O)Nc1nc(N)c(-c2nc(-c3cccc(NC(=O)C4CC5CC(O)C4C5)c3)cs2)s1 (centres unmarked)
inhibition at 0.001 µM: 20%
inhibition at 0.01 µM: 19%

CNC(=O)Nc1nc(N)c(-c2nc(-c3cccc(NC(=O)C4C[C@@H]5C[C@H]4CCC5O)c3)cs2)s1 (some centres unmarked)
inhibition at 0.001 µM: 14%
inhibition at 0.01 µM: 21%

Source: patent US6620828B2, “Thiazole compounds and pharmaceutical compositions for inhibiting protein kinases and methods for their use” (Agouron Pharmaceuticals, Inc., priority 1999, dated 2003)
